Measurements as given in ChEMBL document CHEMBL1201862, “PubChem BioAssay data set” (2004).
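Briefly, cells in 96-well plates were exposed to five compound concentrations for 48 h, and endpoints were estimated by linear interpolation. GI50 is the concentration that inhibits growth by half.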 Activity calls are given as the source filed them. No stated cut-off is given here; in the data, active = GI50 up to about 1.1 µM and inactive = higher.

Key:
Assay in all cases: NCI-60 cell line screen, 48 h
CCRF-CEM = test system: CCRF-CEM
NCI-H226 = test system: NCI-H226
SF-268 = test system: SF-268
SN12C = test system: SN12C
SK-MEL-28 = test system: SK-MEL-28
NCI-H23 = test system: NCI-H23
IGROV-1 = test system: IGROV-1
OVCAR-5 = test system: OVCAR-5
SR = test system: SR
LOX IMVI = test system: LOX IMVI
TK-10 = test system: TK-10
OVCAR-4 = test system: OVCAR-4
EKVX = test system: EKVX
HCT-116 = test system: HCT-116
NCI-H460 = test system: NCI-H460
SF-539 = test system: SF-539
NCI-H522 = test system: NCI-H522
KM12 = test system: KM12
MDA-N = test system: MDA-N
T47D = test system: T47D

Row | Structure (SMILES) | GI50 (CCRF-CEM) | GI50 (NCI-H226) | GI50 (SF-268) | GI50 (SN12C) | GI50 (SK-MEL-28) | GI50 (NCI-H23) | GI50 (IGROV-1) | GI50 (OVCAR-5) | GI50 (SR) | GI50 (LOX IMVI) | GI50 (TK-10) | GI50 (OVCAR-4) | GI50 (EKVX) | GI50 (HCT-116) | GI50 (NCI-H460) | GI50 (SF-539) | GI50 (NCI-H522) | GI50 (KM12) | GI50 (MDA-N) | GI50 (T47D)
1 | O=C(COc1ccc(/C=C/C(=O)c2ccc(Cl)cc2)cc1)Nc1c(Cl)cccc1Cl | 20.8 µM (inactive) | > 100 µM (inactive) | > 100 µM (inactive) | > 100 µM (inactive) | > 100 µM (inactive) | 77.8 µM (inactive) | > 100 µM (inactive) | 40.8 µM (inactive) | 50 µM (inactive) | 56.1 µM (inactive) | > 100 µM (inactive) | 94 µM (inactive) | > 100 µM (inactive) | 38.2 µM (inactive) | > 100 µM (inactive) | 80.7 µM (inactive) | 33.1 µM (inactive) | 67.5 µM (inactive) | – | –
2 | COc1ccc(-c2nc3ncccn3c2-c2ccc(SC)cc2)cc1 | 2.28 µM (inactive) | – | 0.418 µM (active) | 3.92 µM (inactive) | 16.9 µM (inactive) | 3.3 µM (inactive) | 2.04 µM (inactive) | 2.42 µM (inactive) | 0.507 µM (active) | 2.14 µM (inactive) | – | 8.69 µM (inactive) | – | 1.1 µM (active) | 2.18 µM (inactive) | 1.83 µM (inactive) | 0.23 µM (active) | 0.453 µM (active) | 0.237 µM (active) | –
3 | N#Cc1nc(-c2cnccn2)oc1N | > 100 µM (inactive) | – | > 100 µM (inactive) | > 100 µM (inactive) | > 100 µM (inactive) | – | > 100 µM (inactive) | > 100 µM (inactive) | > 100 µM (inactive) | > 100 µM (inactive) | > 100 µM (inactive) | – | > 100 µM (inactive) | > 100 µM (inactive) | – | – | – | > 100 µM (inactive) | > 100 µM (inactive) | –
4 | O=C(COc1ccc(OCC(=O)N2C(=O)CC(=O)N(c3ccccc3)C2=S)cc1)N1C(=O)CC(=O)N(c2ccccc2)C1=S | – | 65.8 µM (inactive) | 43.2 µM (inactive) | > 100 µM (inactive) | 87.3 µM (inactive) | 64.4 µM (inactive) | 38.7 µM (inactive) | > 100 µM (inactive) | – | – | > 100 µM (inactive) | 44.4 µM (inactive) | > 100 µM (inactive) | 22.5 µM (inactive) | 40.9 µM (inactive) | – | 38.1 µM (inactive) | 27.4 µM (inactive) | 68.7 µM (inactive) | –
5 | COc1cc(CC(=O)c2cc3c(cc2-c2ccccc2)OCO3)cc(OC)c1OC | 13 µM (inactive) | 14 µM (inactive) | 75.7 µM (inactive) | 68.7 µM (inactive) | 58.3 µM (inactive) | 22.9 µM (inactive) | 23.1 µM (inactive) | > 100 µM (inactive) | 19.1 µM (inactive) | 0.253 µM (active) | 32.9 µM (inactive) | 27.1 µM (inactive) | 10.8 µM (inactive) | 43.9 µM (inactive) | 67.9 µM (inactive) | 17.5 µM (inactive) | 18.7 µM (inactive) | > 100 µM (inactive) | – | –
6 | NNC(=O)c1c(-c2cccnc2)cnc2ccccc12 | > 100 µM (inactive) | > 100 µM (inactive) | > 100 µM (inactive) | > 100 µM (inactive) | > 100 µM (inactive) | > 100 µM (inactive) | > 100 µM (inactive) | > 100 µM (inactive) | > 100 µM (inactive) | – | > 100 µM (inactive) | > 100 µM (inactive) | > 100 µM (inactive) | > 100 µM (inactive) | > 100 µM (inactive) | > 100 µM (inactive) | > 100 µM (inactive) | > 100 µM (inactive) | > 100 µM (inactive) | –
7 | CCCCCCCCCCCCCCCC(=O)OCC1OC(N2C(=O)/C(=N\NC(N)=S)c3ccc([N+](=O)[O-])cc32)C(OC(C)=O)C1OC(C)=O (stereo unspecified) | > 100 µM (inactive) | > 100 µM (inactive) | > 100 µM (inactive) | > 100 µM (inactive) | > 100 µM (inactive) | > 100 µM (inactive) | > 100 µM (inactive) | > 100 µM (inactive) | > 100 µM (inactive) | 99.3 µM (inactive) | > 100 µM (inactive) | > 100 µM (inactive) | 39.4 µM (inactive) | 29 µM (inactive) | > 100 µM (inactive) | > 100 µM (inactive) | 36.6 µM (inactive) | 74.1 µM (inactive) | – | –
8 | C=Cc1ccccc1C1(O)C=CC(OC)(OC)C=C1 | 2.94 µM (inactive) | 30.5 µM (inactive) | 9.62 µM (inactive) | 8.24 µM (inactive) | 6.89 µM (inactive) | 4.46 µM (inactive) | 13.4 µM (inactive) | 6.93 µM (inactive) | 2.65 µM (inactive) | – | 3.25 µM (inactive) | 17.8 µM (inactive) | 14.7 µM (inactive) | 3.4 µM (inactive) | 8.57 µM (inactive) | 2.72 µM (inactive) | 7.26 µM (inactive) | 0.617 µM (active) | – | 22.2 µM (inactive)
9 | C=CCc1cccc2cc(C(=O)Nc3nc(C45CC6CC(CC(C6)C4)C5)cs3)c(=O)oc12 | 64.3 µM (inactive) | 29.1 µM (inactive) | 10.7 µM (inactive) | 45.2 µM (inactive) | 61.8 µM (inactive) | 18 µM (inactive) | 27.8 µM (inactive) | > 100 µM (inactive) | 28.9 µM (inactive) | 19.4 µM (inactive) | 30.8 µM (inactive) | 21 µM (inactive) | 25.1 µM (inactive) | > 10 µM (inactive) | 29.9 µM (inactive) | > 100 µM (inactive) | 49.7 µM (inactive) | 28.1 µM (inactive) | 45 µM (inactive) | –
10 | N#CC1(C#N)C2C=CC(c3coc4cccc2c34)C1(C#N)C#N (stereo unspecified) | 1.11 µM (active) | 19 µM (inactive) | 6.27 µM (inactive) | 11 µM (inactive) | 3.66 µM (inactive) | 18.7 µM (inactive) | 18.7 µM (inactive) | 17 µM (inactive) | 3.01 µM (inactive) | 15.2 µM (inactive) | 7.05 µM (inactive) | 31.8 µM (inactive) | 15.5 µM (inactive) | 2.49 µM (inactive) | 19.4 µM (inactive) | 20.2 µM (inactive) | 1.66 µM (inactive) | 18.3 µM (inactive) | – | –
11 | C=C(Cl)/C(=C\Cl)CCC(Br)C(C)C (stereo unspecified) | 44.5 µM (inactive) | > 100 µM (inactive) | > 100 µM (inactive) | > 100 µM (inactive) | 78.5 µM (inactive) | > 100 µM (inactive) | > 100 µM (inactive) | > 100 µM (inactive) | > 100 µM (inactive) | 15.8 µM (inactive) | > 100 µM (inactive) | 29.2 µM (inactive) | > 100 µM (inactive) | > 100 µM (inactive) | > 100 µM (inactive) | > 100 µM (inactive) | 21.1 µM (inactive) | > 100 µM (inactive) | 41 µM (inactive) | –
12 | CC(C)C1OC(=O)/C=C/C=C/C=C/C=C/C=C/CC(O)CC(O)CC(O)CC(O)CC(O)CC(O)CC(O)CC(O)/C=C/C1C (stereo unspecified) | > 100 µM (inactive) | > 100 µM (inactive) | > 100 µM (inactive) | > 100 µM (inactive) | > 100 µM (inactive) | > 100 µM (inactive) | > 100 µM (inactive) | > 100 µM (inactive) | > 100 µM (inactive) | > 100 µM (inactive) | > 100 µM (inactive) | > 100 µM (inactive) | > 100 µM (inactive) | > 100 µM (inactive) | > 100 µM (inactive) | > 100 µM (inactive) | – | > 100 µM (inactive) | > 100 µM (inactive) | –
13 | CC1(C)C(=O)C(O)=CC2C1=CCC1C2(C)C(=O)CC2(C)C(C(C)(O)C(=O)CC(O)C(C)(C)O)C(O)CC12C (stereo unspecified) | 3.01 µM (inactive) | 2.86 µM (inactive) | 3.11 µM (inactive) | 4.98 µM (inactive) | 2.69 µM (inactive) | 10.9 µM (inactive) | 2.64 µM (inactive) | 25.2 µM (inactive) | 4 µM (inactive) | 2.5 µM (inactive) | 2.54 µM (inactive) | 2.82 µM (inactive) | 10 µM (inactive) | 3.97 µM (inactive) | 3.39 µM (inactive) | 2.57 µM (inactive) | 2.71 µM (inactive) | 9.14 µM (inactive) | – | –
14 | O=C(CN1CCOCC1)c1ccc2c(c1)oc(=O)n2CCN1CCOCC1 | > 100 µM (inactive) | > 100 µM (inactive) | > 100 µM (inactive) | > 100 µM (inactive) | > 100 µM (inactive) | – | > 100 µM (inactive) | > 100 µM (inactive) | > 100 µM (inactive) | > 100 µM (inactive) | – | – | > 100 µM (inactive) | > 100 µM (inactive) | – | > 100 µM (inactive) | – | > 100 µM (inactive) | > 100 µM (inactive) | –
15 | Cc1ccc(-c2cc(-c3ccco3)nc(N)n2)o1 | > 100 µM (inactive) | > 100 µM (inactive) | > 100 µM (inactive) | > 100 µM (inactive) | > 100 µM (inactive) | > 100 µM (inactive) | > 100 µM (inactive) | > 100 µM (inactive) | > 100 µM (inactive) | > 100 µM (inactive) | > 100 µM (inactive) | > 100 µM (inactive) | 65.2 µM (inactive) | > 100 µM (inactive) | > 100 µM (inactive) | > 100 µM (inactive) | > 100 µM (inactive) | > 100 µM (inactive) | – | –
16 | O=C1C=C2CC[C@H]3[C@@H]4CC[C@H](Oc5c6ccccc6nc6ccccc56)[C@H]4CC[C@@H]3[C@H]2CC1 | 18.5 µM (inactive) | 60.7 µM (inactive) | 84.9 µM (inactive) | 55.3 µM (inactive) | 48.9 µM (inactive) | 27.6 µM (inactive) | 31.9 µM (inactive) | > 100 µM (inactive) | – | 27.8 µM (inactive) | 47.8 µM (inactive) | 52.7 µM (inactive) | 4.47 µM (inactive) | 37.1 µM (inactive) | 35.6 µM (inactive) | 52.2 µM (inactive) | – | 39.6 µM (inactive) | 21.4 µM (inactive) | 43.1 µM (inactive)
